Reference: ChEMBL document CHEMBL1130676, “Aryl ketones as novel replacements for the C-terminal amide bond of succinyl hydroxamate MMP inhibitors” (Bioorg Med Chem Lett, 1998)
pIC50: −log10 of the molar value.

Experiments:
Interstitial collagenase = biological target: T1, Interstitial collagenase (Homo sapiens, UniProt P03956); assay: In vitro inhibitory activity against matrix metalloprotease 1 isolated from the culture medium of human skin fibroblasts induced with PMA
T1 sequence (P03956 whole entry): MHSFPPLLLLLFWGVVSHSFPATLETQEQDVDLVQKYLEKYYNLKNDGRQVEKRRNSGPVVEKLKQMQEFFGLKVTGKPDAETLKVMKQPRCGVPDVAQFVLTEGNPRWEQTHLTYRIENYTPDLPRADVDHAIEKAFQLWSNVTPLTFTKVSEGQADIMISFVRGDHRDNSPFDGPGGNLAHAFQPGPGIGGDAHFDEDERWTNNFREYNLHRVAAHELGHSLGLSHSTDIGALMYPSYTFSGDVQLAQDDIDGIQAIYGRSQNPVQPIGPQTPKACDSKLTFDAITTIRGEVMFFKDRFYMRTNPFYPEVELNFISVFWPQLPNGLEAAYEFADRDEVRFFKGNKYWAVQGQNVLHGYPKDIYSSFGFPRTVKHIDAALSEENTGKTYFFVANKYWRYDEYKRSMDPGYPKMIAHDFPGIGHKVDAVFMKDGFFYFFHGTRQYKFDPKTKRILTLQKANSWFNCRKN

Stromelysin-1 [1] = biological target: T2, Stromelysin-1 (Homo sapiens, UniProt P08254); assay: In vitro inhibitory activity against human recombinant matrix metalloprotease 3
Matrilysin = biological target: T3, Matrilysin (Homo sapiens, UniProt P09237); assay: In vitro inhibitory activity against human recombinant matrix metalloprotease 7
T3 sequence (P09237 whole entry): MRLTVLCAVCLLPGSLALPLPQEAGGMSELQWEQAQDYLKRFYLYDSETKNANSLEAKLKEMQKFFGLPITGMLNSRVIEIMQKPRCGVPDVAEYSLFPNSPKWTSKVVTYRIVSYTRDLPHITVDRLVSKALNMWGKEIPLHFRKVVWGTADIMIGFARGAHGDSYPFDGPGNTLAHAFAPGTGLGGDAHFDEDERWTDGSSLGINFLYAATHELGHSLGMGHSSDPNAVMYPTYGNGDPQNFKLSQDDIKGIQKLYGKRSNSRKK

[2] = biological target: T4, 72 kDa type IV collagenase (Homo sapiens, UniProt P08253); assay: In vitro inhibitory activity against matrix metalloprotease 2 isolated from human HT1080 fibrosarcoma cells induced with TNF
[3] = Oral bioavailability in monkey (dose 10 mg/kg); assay type: ADME, organism-based; conditions: primates, in vivo
[4] = Half life was measured in monkey at dose of 10 mg/kg by po administration; assay type: ADME, organism-based; design: dose 10 mg/kg, route oral; conditions: primates, in vivo
Stromelysin-1 [5] = biological target: T2, Stromelysin-1; assay: Inhibition of human recombinant matrix metalloprotease 3 (MMP3)
[6] = biological target: T4, 72 kDa type IV collagenase; assay: Inhibition of matrix metalloprotease 2 (MMP2) of human HT1080 fibrosarcoma cells induced with TNF
[7] = Half life was measured in rat at dose of 30 mg/kg by iv administration; assay type: ADME, organism-based; design: dose 30 mg/kg, route intravenous; conditions: in vivo
[8] = Bioavailability in rat after po administration of 30 mg/kg dose; assay type: ADME, organism-based; conditions: in vivo
[9] = Bioavailability in monkey after po administration of 10 mg/kg dose; assay type: ADME, organism-based; conditions: primates, in vivo
[10] = Half life was measured in rat at dose of 30 mg/kg by po administration; assay type: ADME, organism-based; design: dose 30 mg/kg, route oral; conditions: in vivo

T2 sequence (P08254 whole entry): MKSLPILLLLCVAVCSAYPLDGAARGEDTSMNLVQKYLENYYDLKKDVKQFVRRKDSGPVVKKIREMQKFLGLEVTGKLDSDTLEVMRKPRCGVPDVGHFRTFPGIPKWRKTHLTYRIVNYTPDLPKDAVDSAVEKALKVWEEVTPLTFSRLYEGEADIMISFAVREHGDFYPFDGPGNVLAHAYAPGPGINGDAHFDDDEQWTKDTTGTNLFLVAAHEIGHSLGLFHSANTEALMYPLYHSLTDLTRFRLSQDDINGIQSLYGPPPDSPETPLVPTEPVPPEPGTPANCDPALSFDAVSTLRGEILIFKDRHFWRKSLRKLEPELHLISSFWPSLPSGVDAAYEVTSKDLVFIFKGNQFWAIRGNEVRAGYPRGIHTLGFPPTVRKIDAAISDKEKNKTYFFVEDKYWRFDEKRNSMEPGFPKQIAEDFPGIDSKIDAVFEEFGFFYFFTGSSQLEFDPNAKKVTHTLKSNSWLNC
T4 sequence (P08253 whole entry): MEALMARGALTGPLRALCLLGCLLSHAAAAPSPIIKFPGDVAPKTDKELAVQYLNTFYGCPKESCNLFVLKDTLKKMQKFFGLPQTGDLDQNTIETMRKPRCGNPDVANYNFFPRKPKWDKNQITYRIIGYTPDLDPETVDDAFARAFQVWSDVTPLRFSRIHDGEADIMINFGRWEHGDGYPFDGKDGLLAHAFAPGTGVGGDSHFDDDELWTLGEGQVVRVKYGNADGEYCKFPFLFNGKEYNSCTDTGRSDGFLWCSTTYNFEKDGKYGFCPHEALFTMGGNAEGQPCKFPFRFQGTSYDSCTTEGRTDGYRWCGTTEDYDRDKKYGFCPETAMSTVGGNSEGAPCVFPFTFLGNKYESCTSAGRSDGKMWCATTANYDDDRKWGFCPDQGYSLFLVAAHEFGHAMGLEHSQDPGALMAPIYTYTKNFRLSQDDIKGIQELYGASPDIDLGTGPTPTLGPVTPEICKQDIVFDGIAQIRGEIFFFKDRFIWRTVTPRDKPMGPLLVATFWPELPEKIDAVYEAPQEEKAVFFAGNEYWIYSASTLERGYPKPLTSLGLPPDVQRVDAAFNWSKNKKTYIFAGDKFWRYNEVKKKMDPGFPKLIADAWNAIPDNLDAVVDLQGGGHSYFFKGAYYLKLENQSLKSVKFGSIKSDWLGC

| Compound | pIC50 (Interstitial collagenase) | pIC50 (Stromelysin-1 [1]) | pIC50 (Matrilysin) | pIC50 [2] | further results |
| --- | --- | --- | --- | --- | --- |
| CC(C)C[C@H]1C(=O)N[C@H](C(=O)c2ccc(S(C)(=O)=O)cc2)Cc2ccc(cc2)OCCCC[C@@H]1C(=O)NO | 7.22 | 8.01 | 8.24 | 8.07 |  |
| CC(C)C[C@H]1C(=O)N[C@H](C(=O)c2ccccc2)Cc2ccc(cc2)OCCCCC[C@@H]1C(=O)NO | 8.04 |  | 8.66 | 8.41 |  |
| CC(C)C[C@H]1C(=O)N[C@H](C(=O)c2ccc[nH]2)Cc2ccc(cc2)OCCCC[C@@H]1C(=O)NO | 8.72 | 8.14 | 8.38 | 8.14 |  |
| CC(C)C[C@H](CC(=O)NO)C(=O)N[C@@H](Cc1ccccc1)C(=O)c1c[nH]c2ccccc12 | 8.29 |  | 8.37 | 9.00 |  |
| CC(C)C[C@H]1C(=O)N[C@H](C(=O)c2ccc(C(C)(C)C)cc2)Cc2ccc(cc2)OCCCC[C@@H]1C(=O)NO | 6.57 | 6.96 | 7.40 | 7.04 |  |
| CC(C)C[C@H]1C(=O)N[C@H](C(=O)c2c[nH]c3ccccc23)Cc2ccc(cc2)OCCCCC[C@@H]1C(=O)NO | 8.32 | 8.29 | 8.51 | 8.21 |  |
| CC(C)C[C@H]1C(=O)N[C@H](C(=O)c2ccccc2)Cc2ccc(cc2)OCCCC[C@@H]1C(=O)NO | 7.89 | 8.05 | 8.48 | 8.02 | bioavailability [3]: 33%; half-life [4]: 15 h |
| CC(C)C[C@H]1C(=O)N[C@H](C(=O)c2ccc(CO)cc2)Cc2ccc(cc2)OCCCC[C@@H]1C(=O)NO | 8.30 | 8.47 | 8.82 | 8.29 |  |
| CNC(=O)[C@@H]1Cc2ccc(cc2)OCCCC[C@H](C(=O)NO)[C@@H](CC(C)C)C(=O)N1 |  | 8.40 |  | 8.25 |  |
| CNC(=O)[C@@H]1Cc2ccc(cc2)OCCCCC[C@H](C(=O)NO)[C@@H](CC(C)C)C(=O)N1 |  | 8.59 | 8.21 |  |  |
| C=CCC(C(=O)NO)C(CC(C)C)C(=O)N[C@@H](Cc1ccccc1)C(=O)c1nc2ccccc2[nH]1 (single isomer, unassigned) | 6.74 | 7.27 | 7.17 | 6.96 |  |
| C=CCC(C(=O)NO)C(CC(C)C)C(=O)N[C@@H](Cc1ccccc1)C(=O)c1cccnc1 (single isomer, unassigned) | 7.85 | 8.00 | 8.07 | 8.07 |  |
| C=CCC(C(=O)NO)C(CC(C)C)C(=O)N[C@@H](Cc1ccccc1)C(=O)CC (single isomer, unassigned) | 7.40 | 7.09 | 7.41 | 7.48 |  |
| C=CCC(C(=O)NO)C(CC(C)C)C(=O)N[C@@H](Cc1ccccc1)C(=O)c1nccs1 (single isomer, unassigned) |  |  | 6.66 |  | pIC50 (Stromelysin-1 [5]): 6.44; pIC50 [6]: 5.96 |
| C=CCC(C(=O)NO)C(CC(C)C)C(=O)N[C@@H](Cc1ccccc1)C(C)=O (single isomer, unassigned) |  |  | 7.35 | 7.66 |  |
| C=CCC(C(=O)NO)C(CC(C)C)C(=O)N[C@@H](Cc1ccccc1)C(=O)c1cn(C)c2ccccc12 (single isomer, unassigned) | 8.33 | 7.44 | 7.54 | 7.64 |  |
| C=CCC(C(=O)NO)C(CC(C)C)C(=O)N[C@@H](Cc1ccccc1)C(=O)c1ccccc1 (single isomer, unassigned) | 8.00 |  | 8.44 | 8.47 |  |
| C=CCC(C(=O)NO)C(CC(C)C)C(=O)N[C@H](C(=O)c1c[nH]c2ccccc12)C(C)(C)C (single isomer, unassigned) | 8.92 |  | 9.11 | 8.80 |  |
| CNC(=O)[C@@H](NC(=O)C(CC(C)C)C(O)C(=O)NO)C(C)(C)C (single isomer, unassigned) |  |  |  |  | bioavailability [3]: 15%; half-life [4]: 27 h |
| CC(C)CC(C(=O)N[C@H](C(=O)c1c[nH]c2ccccc12)C(C)(C)C)C(O)C(=O)NO (single isomer, unassigned) | 9.59 |  | 9.52 | 9.42 | bioavailability [3]: 10%; half-life [4]: 12 h |
| C=CCC(C(=O)NO)C(CC(C)C)C(=O)N[C@@H](Cc1ccccc1)C(=O)c1ccc[nH]1 (single isomer, unassigned) | 8.59 |  | 8.92 | 8.96 |  |
| C=CCC(C(=O)NO)C(CC(C)C)C(=O)N[C@@H](Cc1ccccc1)C(=O)c1cc[nH]c1 (single isomer, unassigned) | 8.21 | 8.18 | 8.10 | 8.57 |  |
| C=CCC(C(=O)NO)C(CC(C)C)C(=O)N[C@@H](Cc1ccccc1)C(=O)c1cccs1 (single isomer, unassigned) |  | 8.49 | 7.89 | 8.19 |  |
| C=CCC(C(=O)NO)C(CC(C)C)C(=O)N[C@@H](Cc1ccccc1)C(=O)c1ncco1 (single isomer, unassigned) | 8.57 | 8.74 | 8.38 | 8.14 |  |
| C=CCC(C(=O)NO)C(CC(C)C)C(=O)N[C@@H](Cc1ccccc1)C(=O)NC (single isomer, unassigned) |  |  | 7.96 |  | half-life [7]: 0.35 h; bioavailability [8]: 0% |
| CC(C)CC(C(=O)N[C@@H](Cc1ccccc1)C(=O)c1c[nH]c2ccccc12)C(O)C(=O)NO (single isomer, unassigned) | 8.30 |  | 8.96 | 9.22 |  |
| C=CCC(C(=O)NO)C(CC(C)C)C(=O)N[C@@H](Cc1ccccc1)C(=O)c1c[nH]c2ccccc12 (single isomer, unassigned) |  |  |  |  | bioavailability [8]: 7%; bioavailability [9]: 12%; half-life [10]: 1.45 h; half-life [4]: 20 h |
| CNC(=O)[C@H](Cc1ccccc1)NC(=O)[C@H](CC(C)C)[C@H](CSc1cccs1)C(=O)NO [BATIMASTAT] |  |  | 8.62 |  |  |
